Measurements from patent US11896593B2, “Sulfamate derivative compounds for use in treating or alleviating a psychiatric disorder” (Bio-Pharm Solutions Co., Ltd., priority 2020, dated 2024).
Marks after values point to notes of the source that are not given here.

Columns and labels:
ICR male mice = assay: Forced swim test (mouse, mFST); type: in vivo; settings: for Immobile posture time (sec.)/4 minutes, Treatment: mouse, administered orally 60 minutes before testing
Method: (§1) In order to determine the anti-depressant effect in rodents, the forced swim test was performed with rats and mice. The forced swim test causes an immobile state by forcing an animal to swim in a confined space. It reflects a state of despair giving up evading such a circumstance. ICR male mice (25 g to 30 g) and Wistar male rats (240 g to 260 g) were purchased from Samtako Bio Korea Co. (Korea) and allowed to acclimatize for 1 week before being tested in a controlled animal facility (temperature 22±2° C., humidity 55±5%). The test compound was dissolved in 20% Tween80 and administered orally 60 minutes before testing. The control group was provided with a corresponding vehicle. […] 15 minutes of forced swimming was performed a day before the experiment. On the day of the experiment, the animal was placed in the cylinder 60 minutes after the administration of the compound and was videotaped for 6 minutes. In the recorded videos, time during which the animal placed its head on the water and remained still without movement was measured based on the remaining 4 minutes excluding the first 2 minutes. It was evaluated that the lower the value of the immobile posture time, the greater the anti-depressant action (Reference; Porsolt R D, Le Pichon M. Jalfre M. 1997. Depression: a new animal model sensitive to antidepressant treatments. Nature. April 21; 266(5604):730-2.).
(§2) The result was shown as the standard error of measurement (SEM) of mean value t mean value. Behavioral data were analyzed by one-way ANOVA. For statistical significance, a value of <0.05 was taken (***p<0.001, **p=0.001˜0.01, *p=0.01˜0.05). Data management and statistics were performed using the Prism software of Windows version 4 (GraphPad Softward Co., San Diego, CA, USA).
(§3) Based on the results of Table 7, the ED50 value of the compound of Example 2 was calculated and shown in Table 7, and after 30 mg/kg and 60 mg/kg of the compounds of the other remaining examples were administered based on TD50 values to perform the forced swim tests, respectively, the administration doses with protected efficacy and protection % at the corresponding administration doses were shown in Table 7.

Wistar male rats = assay: Forced swim test (rat, rFST); type: in vivo; settings: for Immobile posture time (sec.)/4 minutes, Treatment: rat, administered orally 60 minutes before testing
Method: as §1, §2, §3

CC1(C)O[C@@H](COS(N)(=O)=O)[C@H](c2ccccc2Cl)O1 [Example 2, ((4S,5S)-5-(2-chlorophenyl)-2,2-dimethyl-1,3-dioxolan-4-yl)methyl sulfamate]
ED50 (ICR male mice; mouse forced swim test, po): 23.5 mg/kg
Immobile posture time (sec.)/4 minutes, Treatment (ICR male mice; 10 mg/kg): 105.7 ± 6.9** sec./4 minutes
Immobile posture time (sec.)/4 minutes, Treatment (ICR male mice; 20 mg/kg): 80.5 ± 8.6** sec./4 minutes
Immobile posture time (sec.)/4 minutes, Treatment (ICR male mice; 40 mg/kg): 61.2 ± 20.1** sec./4 minutes
ED50 (Wistar male rats; rat forced swim test, po): 13.3 mg/kg
Immobile posture time (sec.)/4 minutes, Treatment (Wistar male rats; 5 mg/kg): 160.7 ± 3.8 sec./4 minutes
Immobile posture time (sec.)/4 minutes, Treatment (Wistar male rats; 10 mg/kg): 117.3 ± 12.2** sec./4 minutes
Immobile posture time (sec.)/4 minutes, Treatment (Wistar male rats; 20 mg/kg): 51.0 ± 11.6** sec./4 minutes
